From ChEMBL document CHEMBL1201862, “PubChem BioAssay data set” (2004)
Activity calls are given as the source filed them.

Tests used:
[1] = biological target: T1, Low molecular weight phosphotyrosine protein phosphatase (Homo sapiens, UniProt P24666); format: functional; settings: read-out: IC50_Mean
T1 sequence (P24666 whole entry): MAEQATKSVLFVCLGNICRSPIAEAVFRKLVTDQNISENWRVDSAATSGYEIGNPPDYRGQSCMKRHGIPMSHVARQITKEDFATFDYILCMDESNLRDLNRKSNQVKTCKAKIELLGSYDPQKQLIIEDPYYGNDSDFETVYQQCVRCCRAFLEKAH

[2] = biological target: T1, Low molecular weight phosphotyrosine protein phosphatase; format: functional; settings: read-out: IC50_Mean; remark: listed apart in the source
[3] = Fluorescence-based cell-based high throughput dose response assay for inhibitors of the interaction of nucleotide-binding oligomerization domain containing 2 (NOD2) and the receptor-interacting serine-threonine kinase 2 (RIPK2).; format: functional; settings: Homo sapiens
[4] = Luminescence Cell-Based Dose Retest to Confirm Inhibitors of Cancer Stem Cells. [Related pubchem assays (depositor defined):AID2717, AID2721]; format: functional; settings: Homo sapiens
[5] = biological target: T2, Histone-lysine N-methyltransferase NSD2 (Homo sapiens, UniProt O96028); format: biochemical
T2 sequence (O96028 whole entry): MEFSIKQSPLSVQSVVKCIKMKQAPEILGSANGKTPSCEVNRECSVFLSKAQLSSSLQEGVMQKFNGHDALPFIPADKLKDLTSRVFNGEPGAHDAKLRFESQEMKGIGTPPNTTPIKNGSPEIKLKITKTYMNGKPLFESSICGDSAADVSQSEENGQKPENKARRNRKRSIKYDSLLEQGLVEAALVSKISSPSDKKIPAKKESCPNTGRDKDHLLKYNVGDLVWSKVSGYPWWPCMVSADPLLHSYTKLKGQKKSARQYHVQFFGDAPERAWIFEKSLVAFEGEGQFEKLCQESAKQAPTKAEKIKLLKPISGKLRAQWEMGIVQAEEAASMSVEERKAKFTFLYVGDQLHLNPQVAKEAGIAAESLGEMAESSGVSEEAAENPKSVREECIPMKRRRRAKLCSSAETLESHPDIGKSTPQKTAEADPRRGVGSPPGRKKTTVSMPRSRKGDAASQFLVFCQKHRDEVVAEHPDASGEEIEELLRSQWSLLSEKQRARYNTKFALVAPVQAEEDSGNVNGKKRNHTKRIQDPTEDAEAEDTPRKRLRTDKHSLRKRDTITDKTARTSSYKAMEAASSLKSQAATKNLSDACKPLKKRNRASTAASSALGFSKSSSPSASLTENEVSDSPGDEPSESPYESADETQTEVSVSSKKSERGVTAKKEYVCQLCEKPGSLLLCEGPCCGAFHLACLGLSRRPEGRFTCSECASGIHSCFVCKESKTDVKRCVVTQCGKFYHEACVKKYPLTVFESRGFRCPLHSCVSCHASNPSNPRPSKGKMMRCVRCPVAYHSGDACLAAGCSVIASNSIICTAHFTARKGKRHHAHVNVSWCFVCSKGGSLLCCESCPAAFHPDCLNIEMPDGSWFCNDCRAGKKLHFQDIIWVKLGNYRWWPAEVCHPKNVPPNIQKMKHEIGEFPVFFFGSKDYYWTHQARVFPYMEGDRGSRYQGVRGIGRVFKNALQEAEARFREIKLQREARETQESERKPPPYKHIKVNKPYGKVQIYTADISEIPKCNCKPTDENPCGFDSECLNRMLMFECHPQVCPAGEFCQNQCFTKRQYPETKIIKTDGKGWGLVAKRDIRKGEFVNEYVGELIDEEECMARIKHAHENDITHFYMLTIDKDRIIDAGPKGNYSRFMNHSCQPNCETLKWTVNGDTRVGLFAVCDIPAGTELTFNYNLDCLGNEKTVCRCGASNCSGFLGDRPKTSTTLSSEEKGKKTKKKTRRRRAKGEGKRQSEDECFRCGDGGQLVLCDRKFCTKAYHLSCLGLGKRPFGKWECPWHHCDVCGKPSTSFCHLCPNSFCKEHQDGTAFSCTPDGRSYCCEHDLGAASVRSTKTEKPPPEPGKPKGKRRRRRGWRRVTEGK

HEK293 [6] = test: cells; settings: Homo sapiens
HEK293 [7] = test: cells; settings: Homo sapiens; remark: listed apart in the source
[8] = biological target: Dual specificity tyrosine-phosphorylation-regulated kinase 1A (Rattus norvegicus, UniProt Q63470); format: biochemical, Homo sapiens
[9] = HEp-2 cell cytotoxicity, dose response, cytotoxicity control for RSV inhibitor project, HTS (AID 2410); format: functional; settings: human respiratory syncytial virus
[10] = biological target: T3, High affinity choline transporter 1 (Homo sapiens, UniProt Q9GZV3); test: CHT inhibitors, dose response, cell-based, 5-point CRC, membrane potential dye (AID 504840); format: functional
T3 sequence (Q9GZV3 whole entry): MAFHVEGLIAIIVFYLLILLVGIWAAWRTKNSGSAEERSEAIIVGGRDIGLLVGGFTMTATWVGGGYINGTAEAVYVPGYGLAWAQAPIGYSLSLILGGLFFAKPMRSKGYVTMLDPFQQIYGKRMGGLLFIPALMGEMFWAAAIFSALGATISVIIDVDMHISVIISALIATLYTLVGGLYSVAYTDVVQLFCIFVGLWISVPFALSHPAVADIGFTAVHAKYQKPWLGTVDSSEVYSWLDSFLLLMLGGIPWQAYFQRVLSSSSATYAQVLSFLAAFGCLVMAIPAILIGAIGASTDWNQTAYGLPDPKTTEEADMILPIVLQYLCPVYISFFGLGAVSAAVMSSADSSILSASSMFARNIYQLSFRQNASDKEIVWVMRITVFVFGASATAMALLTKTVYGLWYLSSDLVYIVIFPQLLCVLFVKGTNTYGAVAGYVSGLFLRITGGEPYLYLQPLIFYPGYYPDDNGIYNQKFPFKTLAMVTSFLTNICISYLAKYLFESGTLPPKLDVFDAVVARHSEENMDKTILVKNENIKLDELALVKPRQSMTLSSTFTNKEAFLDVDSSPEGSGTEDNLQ

Vero [11] = test: cells; format: functional, cell-based; settings: Chlorocebus sabaeus
Vero [12] = test: cells; format: functional; settings: Chlorocebus sabaeus
[13] = biological target: T4, Mannose-6-phosphate isomerase (Homo sapiens, UniProt P34949); test: human PMI inhibitors, high substrate, primary screen, biochemical, fluorescence intensity, high mannose 6-phosphate (AID 1220)
T4 sequence (P34949 whole entry): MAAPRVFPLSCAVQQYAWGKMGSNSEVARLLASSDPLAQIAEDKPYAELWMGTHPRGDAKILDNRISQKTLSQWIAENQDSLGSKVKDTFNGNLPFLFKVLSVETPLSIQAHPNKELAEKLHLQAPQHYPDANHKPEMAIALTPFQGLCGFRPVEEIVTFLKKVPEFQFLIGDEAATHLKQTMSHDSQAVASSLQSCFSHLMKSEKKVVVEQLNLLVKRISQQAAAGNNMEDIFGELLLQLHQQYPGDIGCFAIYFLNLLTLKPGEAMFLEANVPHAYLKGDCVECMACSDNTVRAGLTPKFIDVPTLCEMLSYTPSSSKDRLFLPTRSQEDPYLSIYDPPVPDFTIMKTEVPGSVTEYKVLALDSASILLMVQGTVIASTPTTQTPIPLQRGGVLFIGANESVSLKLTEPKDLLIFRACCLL

[14] = inhibitors of intracellular T. cruzi replication, confirmation, NIH3T3 host cells, beta-gal luminescence (AID 2044); format: functional, cell-based;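 further: intracellular parasites grown in NIH/3T3 mouse fibroblasts as host cells; luminescent beta-galactosidase reporter signal from transgenic T. cruzi replicating inside host cells; inhibitors lower the luminescence signal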
[15] = cytotoxicity toward NIH3T3 fibroblasts, dose response, counter-screen, cell-based, ATP luminescence, mouse fibroblasts (AID 2010); format: functional;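 further: cells exposed to compound for about 90 hours before reading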
[16] = Vero E6 cell cytotoxicity, dose response, cytotoxicity control for non-replicating M. tuberculosis project, secondary assay (AID 492998); format: functional, VeroE6; settings: Vero C1008
cells = format: functional
[17] = biological target: T5, Voltage-gated N-type calcium channel alpha-1B subunit/Amyloid beta A4 precursor protein-binding family A member 1 (Homo sapiens, UniProt Q00975+Q02410); format: protein assay
T5 sequence (Q00975 whole entry): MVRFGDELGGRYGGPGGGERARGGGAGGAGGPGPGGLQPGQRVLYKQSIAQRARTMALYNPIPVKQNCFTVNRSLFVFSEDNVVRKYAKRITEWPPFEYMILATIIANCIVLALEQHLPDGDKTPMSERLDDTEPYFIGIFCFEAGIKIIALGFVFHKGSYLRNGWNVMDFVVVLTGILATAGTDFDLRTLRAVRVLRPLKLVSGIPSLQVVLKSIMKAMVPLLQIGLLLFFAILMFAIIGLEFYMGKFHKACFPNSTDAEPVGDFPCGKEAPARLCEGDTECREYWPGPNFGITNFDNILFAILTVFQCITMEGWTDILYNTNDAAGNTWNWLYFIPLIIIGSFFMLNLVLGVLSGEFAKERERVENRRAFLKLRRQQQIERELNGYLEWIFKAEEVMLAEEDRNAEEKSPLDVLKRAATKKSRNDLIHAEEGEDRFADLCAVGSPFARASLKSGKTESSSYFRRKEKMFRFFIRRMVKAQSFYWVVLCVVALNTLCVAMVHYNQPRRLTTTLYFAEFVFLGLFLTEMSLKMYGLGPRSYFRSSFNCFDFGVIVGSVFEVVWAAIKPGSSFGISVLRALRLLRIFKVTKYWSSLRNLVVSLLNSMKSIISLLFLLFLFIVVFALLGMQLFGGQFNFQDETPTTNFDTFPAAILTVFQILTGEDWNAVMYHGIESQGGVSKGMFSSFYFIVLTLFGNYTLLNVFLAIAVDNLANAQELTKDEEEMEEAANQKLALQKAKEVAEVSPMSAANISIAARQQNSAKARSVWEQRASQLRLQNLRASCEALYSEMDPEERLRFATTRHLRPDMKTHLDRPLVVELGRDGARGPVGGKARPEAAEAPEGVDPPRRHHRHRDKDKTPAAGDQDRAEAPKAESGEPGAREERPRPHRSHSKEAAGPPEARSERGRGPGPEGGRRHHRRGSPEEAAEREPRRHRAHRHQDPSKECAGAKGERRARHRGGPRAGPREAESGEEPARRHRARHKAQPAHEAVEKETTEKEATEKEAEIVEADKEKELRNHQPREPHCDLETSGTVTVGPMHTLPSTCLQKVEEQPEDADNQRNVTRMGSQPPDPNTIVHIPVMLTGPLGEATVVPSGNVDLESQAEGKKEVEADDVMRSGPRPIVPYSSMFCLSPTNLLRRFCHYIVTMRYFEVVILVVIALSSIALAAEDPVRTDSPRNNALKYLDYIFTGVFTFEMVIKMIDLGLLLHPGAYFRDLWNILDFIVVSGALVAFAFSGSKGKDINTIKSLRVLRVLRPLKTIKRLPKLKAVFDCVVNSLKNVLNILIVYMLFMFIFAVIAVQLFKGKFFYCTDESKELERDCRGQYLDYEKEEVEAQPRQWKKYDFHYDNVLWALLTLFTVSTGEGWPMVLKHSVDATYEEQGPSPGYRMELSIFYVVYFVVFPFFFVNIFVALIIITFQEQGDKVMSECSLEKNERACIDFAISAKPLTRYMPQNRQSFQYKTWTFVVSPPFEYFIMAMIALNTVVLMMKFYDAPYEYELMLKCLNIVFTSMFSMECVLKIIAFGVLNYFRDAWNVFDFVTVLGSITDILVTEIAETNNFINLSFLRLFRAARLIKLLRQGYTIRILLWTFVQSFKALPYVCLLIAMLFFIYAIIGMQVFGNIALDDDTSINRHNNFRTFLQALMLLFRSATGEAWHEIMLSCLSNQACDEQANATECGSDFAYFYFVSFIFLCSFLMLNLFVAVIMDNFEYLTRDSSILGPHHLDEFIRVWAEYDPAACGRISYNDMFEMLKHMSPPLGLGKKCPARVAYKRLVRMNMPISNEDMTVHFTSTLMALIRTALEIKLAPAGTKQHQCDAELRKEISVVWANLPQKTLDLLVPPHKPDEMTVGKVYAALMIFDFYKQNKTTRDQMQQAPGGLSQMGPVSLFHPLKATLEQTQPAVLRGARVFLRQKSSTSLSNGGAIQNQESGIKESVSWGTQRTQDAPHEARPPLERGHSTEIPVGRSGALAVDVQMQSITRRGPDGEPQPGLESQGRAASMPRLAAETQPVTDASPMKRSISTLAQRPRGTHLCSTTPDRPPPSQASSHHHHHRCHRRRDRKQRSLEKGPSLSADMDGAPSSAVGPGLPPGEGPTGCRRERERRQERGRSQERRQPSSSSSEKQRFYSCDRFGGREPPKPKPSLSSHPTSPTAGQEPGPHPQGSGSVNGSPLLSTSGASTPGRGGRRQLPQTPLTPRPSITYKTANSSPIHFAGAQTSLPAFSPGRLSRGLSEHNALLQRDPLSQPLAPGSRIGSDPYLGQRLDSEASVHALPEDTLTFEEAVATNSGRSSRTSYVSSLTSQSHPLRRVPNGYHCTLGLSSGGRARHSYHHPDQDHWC
T5 sequence (Q02410 whole entry): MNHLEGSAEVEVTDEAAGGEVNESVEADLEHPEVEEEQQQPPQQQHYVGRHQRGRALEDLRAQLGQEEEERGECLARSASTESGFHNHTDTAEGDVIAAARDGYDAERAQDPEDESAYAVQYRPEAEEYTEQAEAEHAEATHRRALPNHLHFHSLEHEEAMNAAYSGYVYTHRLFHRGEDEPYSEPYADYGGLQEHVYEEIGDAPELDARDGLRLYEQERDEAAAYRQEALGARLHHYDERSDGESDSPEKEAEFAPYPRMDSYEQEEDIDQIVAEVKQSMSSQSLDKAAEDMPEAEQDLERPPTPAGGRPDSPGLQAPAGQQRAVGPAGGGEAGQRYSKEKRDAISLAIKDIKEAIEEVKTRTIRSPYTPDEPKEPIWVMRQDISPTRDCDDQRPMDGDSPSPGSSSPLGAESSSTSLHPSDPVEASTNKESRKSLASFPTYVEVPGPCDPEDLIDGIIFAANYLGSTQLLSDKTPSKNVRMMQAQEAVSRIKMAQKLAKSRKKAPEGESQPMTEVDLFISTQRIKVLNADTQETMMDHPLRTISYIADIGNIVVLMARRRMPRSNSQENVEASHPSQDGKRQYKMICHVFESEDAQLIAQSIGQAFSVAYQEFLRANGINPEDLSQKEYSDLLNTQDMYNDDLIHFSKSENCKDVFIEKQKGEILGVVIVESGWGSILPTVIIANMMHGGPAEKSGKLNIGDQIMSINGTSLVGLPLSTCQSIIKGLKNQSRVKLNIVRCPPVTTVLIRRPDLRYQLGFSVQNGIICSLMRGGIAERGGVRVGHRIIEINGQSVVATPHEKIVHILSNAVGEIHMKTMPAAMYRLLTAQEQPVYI

[18] = biological target: T5, Voltage-gated N-type calcium channel alpha-1B subunit/Amyloid beta A4 precursor protein-binding family A member 1; format: protein assay; remark: listed apart in the source
[19] = Luminescence Cell-Based Dose Confirmation HTS to Identify Activators of 5'UTR Stem-Loop Driven Alpha-Synuclein mRNA Translation in H4 Neuroglioblastoma Cells. [Related pubchem assays: 1829 (Project Summary), 1814 (Primary HTS)]; format: functional
[20] = Luminescence Cell-Based Dose Response HTS to Identify Activators of Luciferase Translation or Activity in H4 […] Cells. [Related pubchem assays: 1829 (Project Summary), 1814 (Primary HTS)]; format: functional
H4 = test: Luminescence Cell-Based Dose Response HTS to Identify Activators of 5'UTR Stem-Loop Driven Prion Protein mRNA Translation in H4 Neuroglioblastoma Cells. [Related pubchem assays: 1829 (Project Summary), 1814 (Primary HTS)]; format: functional; settings: Homo sapiens
[21] = THP-1 cell cytotoxicity, dose response, cytotoxicity control for non-replicating M. tuberculosis project (AID 489025); format: functional
[22] = biological target: FAD-linked sulfhydryl oxidase ALR (Homo sapiens, UniProt P55789); test: inhibitors of human ALR sulfhydryl oxidase, dose response, biochemical, H2O2 detection, luminescence, cherry-pick (AID 493248)
FAD-linked sulfhydryl oxidase ALR, sequence (P55789 whole entry): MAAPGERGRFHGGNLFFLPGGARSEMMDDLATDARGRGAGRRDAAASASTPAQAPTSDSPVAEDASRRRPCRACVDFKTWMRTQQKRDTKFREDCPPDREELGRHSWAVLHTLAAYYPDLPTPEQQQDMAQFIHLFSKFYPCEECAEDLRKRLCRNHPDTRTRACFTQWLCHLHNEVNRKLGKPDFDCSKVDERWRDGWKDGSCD

[23] = cytotoxicity in HEK-293T cells, dose response, cytotoxicity control for BCR NF-kB inhibitor project, luminescence, B-cell screen hits (AID 489021); format: functional, cell-based;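 further: HEK-293T cells carrying an NF-kB luciferase reporter; cells exposed to compound for about 14 hours before viability readout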
[24] = biological target: T6, Polyadenylate-binding protein 1 (Homo sapiens, UniProt P11940); test: PABP1 MLLE–PAM2 interaction inhibitors, dose response, miRNA deadenylation inhibitor project, biochemical, fluorescence polarization, Cy5-PAM2 peptide, secondary (AID 602260); format: functional; settings: read-out: IC50_Mean
T6 sequence (P11940 whole entry): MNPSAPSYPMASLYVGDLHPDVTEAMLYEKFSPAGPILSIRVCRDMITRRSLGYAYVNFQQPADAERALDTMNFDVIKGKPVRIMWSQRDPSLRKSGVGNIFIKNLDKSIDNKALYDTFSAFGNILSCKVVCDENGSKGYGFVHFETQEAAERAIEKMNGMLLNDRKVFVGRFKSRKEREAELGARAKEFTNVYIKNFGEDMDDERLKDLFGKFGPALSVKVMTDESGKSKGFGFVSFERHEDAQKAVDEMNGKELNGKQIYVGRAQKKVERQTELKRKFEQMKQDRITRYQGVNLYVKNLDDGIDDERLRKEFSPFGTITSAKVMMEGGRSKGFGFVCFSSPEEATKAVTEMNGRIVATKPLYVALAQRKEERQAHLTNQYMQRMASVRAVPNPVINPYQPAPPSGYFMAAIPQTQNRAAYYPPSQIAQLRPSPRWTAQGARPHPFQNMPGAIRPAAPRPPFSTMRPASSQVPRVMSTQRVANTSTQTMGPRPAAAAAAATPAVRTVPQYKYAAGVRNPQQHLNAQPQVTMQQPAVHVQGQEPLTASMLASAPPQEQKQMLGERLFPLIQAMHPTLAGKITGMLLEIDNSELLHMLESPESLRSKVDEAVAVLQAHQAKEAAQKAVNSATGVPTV

[25] = biological target: T6, Polyadenylate-binding protein 1; test: PABP1 MLLE–PAM2 binding inhibitor potency, dose response, biochemical, fluorescence polarization, FITC-PAM2 peptide (AID 602259); format: functional; settings: read-out: IC50_Mean

Fc1ccccc1-c1nc(NCCCN2CCOCC2)c2ccccc2n1
IC50 [1]: 33 µM (inactive) | IC50 [2]: 13 µM (active)

CC(NC(=O)CN(c1cccc(C(F)(F)F)c1)S(=O)(=O)c1ccc(Cl)c([N+](=O)[O-])c1)c1ccccc1 (stereo unspecified)
IC50 [3]: 15.6 µM (inactive)

Cc1ccc(N2C(=O)NC(=O)/C(=C\C=C\c3ccco3)C2=O)cc1
AC50 [4]: 2.98 µM (active) | AC50 [5]: > 20 µM (inactive) | EC50 (HEK293 [6]): > 59.6 µM (inactive) | EC50 (HEK293 [7]): > 59.6 µM (inactive)

Cc1ccc(-c2nn[nH]n2)cc1Cl
AC50 [8]: 9.99 µM (active)

Cc1ccc(Oc2ccc(NC(=O)Cn3ccsc3=N)cc2)cc1
CC50 [9]: 15.7 µM (active) | IC50 [10]: 13.2 µM (active) | IC50 (Vero [11]): > 25 µM (active) | CC50 (Vero [12]): 19.1 µM (active)

CN(C)C=O.Cc1cc(-c2ccco2)c(C#N)c2nc3ccccc3n12
IC50 [13]: > 50 µM (not active) | IC50 [1]: > 80 µM (inactive) | IC50 [2]: 37.5 µM (inactive)

Cc1ccc(C)c(-c2csc(NC(=O)c3cnccn3)n2)c1
EC50 [14]: 2.04 µM (active) | EC50 [15]: 10.4 µM (active) | CC50 [16]: 17.6 µM (active) | IC50 (cells): 3.99 µM (active)

CN(C)c1nc(-c2ccccc2)[n+](C)s1
IC50 [17]: 3.76 µM (active) | IC50 [18]: > 50 µM (inactive)

Cn1cnc([N+](=O)[O-])c1Sc1ccc([N+](=O)[O-])cc1
EC50 [19]: > 120 µM (not active) | EC50 [20]: > 120 µM (not active) | EC50 (H4): > 120 µM (not active) | CC50 [21]: > 40 µM (active) | CC50 [16]: > 20 µM (active) | AC50 [22]: 8.39 µM (active) | IC50 [23]: > 80 µM (inactive) | IC50 (cells): 10.8 µM (active) | IC50 [24]: > 66 µM (inactive) | IC50 [25]: > 66 µM (inactive)
